Measured values taken from ChEMBL document CHEMBL5727960, “Wee-1 inhibiting pyrazolopyrimidinone compounds” (2020).

Target: Wee1-like protein kinase (Homo sapiens, UniProt P30291)
Test: Kinase Activity Assay: All reactions took place in 60 μL volumes in reaction buffer containing 40 mM Tris-HCl and 20 mM magnesium chloride, supplemented with 0.1 mg/mL bovine serum albumin and 2 mM DTT. Compounds were serially diluted in buffer and 5 μL of each concentration pipetted into a white 384 well plate (Sigma Aldrich M6186). A 5 μL aliquot of the Wee-1 enzyme was added to each well and the plate centrifuged for 1 min to ensure mixing of the enzyme and inhibitor. The plate was incubated at room temperature for 30 minutes before the addition of 2.0 μg/mL of substrate and 30 μM ATP in a 5 μL aliquot. The plate was centrifuged for one minute and incubated for 1 h at RT. 15 μL of ADP-Glo stop reagent was added to each well to quench the reaction and deplete unconverted ATP. The plate was incubated for a further 40 min in the dark at RT. 30 μL of ADP-Glo kinase detection reagent was added to each well, converting ADP to ATP, […]. The plate was shaken for 1 min, and incubated in the dark for an additional hour.

Sequence of Wee1-like protein kinase (P30291 whole entry): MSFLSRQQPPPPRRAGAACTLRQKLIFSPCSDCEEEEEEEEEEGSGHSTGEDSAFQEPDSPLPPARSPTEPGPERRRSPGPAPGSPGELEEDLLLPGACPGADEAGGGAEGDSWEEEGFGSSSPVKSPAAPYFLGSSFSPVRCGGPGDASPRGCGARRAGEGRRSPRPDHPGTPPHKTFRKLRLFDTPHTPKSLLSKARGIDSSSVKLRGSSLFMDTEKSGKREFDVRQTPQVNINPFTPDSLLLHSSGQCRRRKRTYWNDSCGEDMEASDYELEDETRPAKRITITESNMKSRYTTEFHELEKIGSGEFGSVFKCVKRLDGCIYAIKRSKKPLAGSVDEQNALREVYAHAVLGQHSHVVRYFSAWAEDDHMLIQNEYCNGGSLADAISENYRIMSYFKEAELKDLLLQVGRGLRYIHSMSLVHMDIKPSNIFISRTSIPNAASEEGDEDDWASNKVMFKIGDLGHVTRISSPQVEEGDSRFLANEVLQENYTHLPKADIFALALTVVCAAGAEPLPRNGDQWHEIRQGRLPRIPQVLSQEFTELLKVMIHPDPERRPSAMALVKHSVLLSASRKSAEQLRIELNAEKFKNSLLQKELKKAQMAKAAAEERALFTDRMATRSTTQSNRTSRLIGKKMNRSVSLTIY

C=CCn1c(=O)c2cnc(Nc3ccc(N4CCOCC4)nc3)nc2n1-c1cccc(N=S(C)(C)=O)n1
IC50: 0.8 nM
